For the assay, the system named is aerobe population and SRP population. Put plainly: PAA demand study, assumed microbial kill efficiency (FIG. 2). The format is cell-based. The settings on record: assumed for FIG. 2. An excerpt:
Referring now to FIG. 2 there is shown a graph of one such example. If we assume that in a given system the aerobe population is 1,000,000 per mL and the SRP population is 100,000 per mL and we perform a PAA demand study to understand the microbial kill efficiency we can then determine how much PAA to add to minimize the SRP population without killing so many aerobes that it is detrimental to the waste water plant. This graph assumes that reduction after treatment may be something like: 50% reduction with a 20 ppm PAA treatment, 90% reduction with a 40 ppm treatment, and 99% reduction with a 60 ppm treatment. The goal of treatment would be to suppress the SPR population as much as possible while still allowing a sufficient number of aerobes to survive and move into the waste process.

With `CC(=O)OO` [PAA, peroxyacetic acid], the reduction after treatment (20 ppm PAA treatment) is approximately 50%, the reduction after treatment (40 ppm treatment) is approximately 90% and the reduction after treatment (60 ppm treatment) was approximately 99%.

(Values after patent publication US10081561B2, “Reduction of hydrogen sulfide and/or malodor gassing from water via the addition of peroxyacetic acid/hydrogen peroxide product” (priority 2013, dated 2018).)
